ChEMBL document CHEMBL4266030, “Molecular Basis for Multiple Omapatrilat Binding Sites within the ACE C-Domain: Implications for Drug Design” (J Med Chem, 2018)

Experiments:
[1] = molecular target: T1, Angiotensin-converting enzyme (Homo sapiens, UniProt P12821); experiment: Inhibition of human fully glycosylated ACE N-terminal domain expressed in CHO cells using MCA-RPPGFSAFK(Dnp)-OH as substrate preincubated for 15 mins followed by substrate addition measured after 10 mins by fluorescence spectrophotometric analysis
T1 sequence (P12821 whole entry, the tested form may be a part): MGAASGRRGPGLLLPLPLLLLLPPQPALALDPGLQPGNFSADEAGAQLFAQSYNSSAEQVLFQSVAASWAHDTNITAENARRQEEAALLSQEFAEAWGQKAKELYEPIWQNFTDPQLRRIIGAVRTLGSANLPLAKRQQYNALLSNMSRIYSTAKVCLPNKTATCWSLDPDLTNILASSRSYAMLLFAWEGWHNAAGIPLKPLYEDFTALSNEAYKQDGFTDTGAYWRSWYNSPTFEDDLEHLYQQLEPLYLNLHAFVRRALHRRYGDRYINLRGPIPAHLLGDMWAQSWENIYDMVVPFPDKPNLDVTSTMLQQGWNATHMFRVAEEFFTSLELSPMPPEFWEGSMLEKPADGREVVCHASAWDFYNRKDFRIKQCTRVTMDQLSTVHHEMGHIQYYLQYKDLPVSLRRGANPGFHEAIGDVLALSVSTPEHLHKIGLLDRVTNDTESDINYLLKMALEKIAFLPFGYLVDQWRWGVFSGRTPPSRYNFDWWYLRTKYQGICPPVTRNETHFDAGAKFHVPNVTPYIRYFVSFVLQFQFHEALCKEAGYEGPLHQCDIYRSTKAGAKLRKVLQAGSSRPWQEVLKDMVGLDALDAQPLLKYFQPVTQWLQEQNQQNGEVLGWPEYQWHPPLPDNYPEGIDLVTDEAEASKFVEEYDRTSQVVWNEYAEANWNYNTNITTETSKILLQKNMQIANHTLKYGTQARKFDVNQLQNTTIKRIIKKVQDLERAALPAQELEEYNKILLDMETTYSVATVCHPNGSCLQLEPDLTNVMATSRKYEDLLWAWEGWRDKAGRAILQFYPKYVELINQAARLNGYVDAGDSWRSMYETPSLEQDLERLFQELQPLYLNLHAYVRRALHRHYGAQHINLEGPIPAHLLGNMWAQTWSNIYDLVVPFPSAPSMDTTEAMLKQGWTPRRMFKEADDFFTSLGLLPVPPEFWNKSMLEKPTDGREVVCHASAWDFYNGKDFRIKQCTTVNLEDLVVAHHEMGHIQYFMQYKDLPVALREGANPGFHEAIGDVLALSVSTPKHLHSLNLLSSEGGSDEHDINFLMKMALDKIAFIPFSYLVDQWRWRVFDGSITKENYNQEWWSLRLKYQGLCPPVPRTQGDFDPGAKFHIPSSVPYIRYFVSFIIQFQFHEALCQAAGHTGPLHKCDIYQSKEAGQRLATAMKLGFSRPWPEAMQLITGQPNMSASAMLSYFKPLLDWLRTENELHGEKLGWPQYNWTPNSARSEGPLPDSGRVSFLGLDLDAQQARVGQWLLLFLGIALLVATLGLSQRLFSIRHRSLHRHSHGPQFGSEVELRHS

[2] = molecular target: T1, Angiotensin-converting enzyme; experiment: Inhibition of human fully glycosylated ACE N-terminal domain expressed in CHO cells using Cbz-Phe-His-Leu as substrate preincubated for 15 mins followed by substrate addition measured after 10 mins by fluorescence spectrophotometric analysis
[3] = molecular target: T1, Angiotensin-converting enzyme; experiment: Inhibition of human fully glycosylated ACE C-terminal domain expressed in CHO cells using MCA-RPPGFSAFK(Dnp)-OH as substrate preincubated for 15 mins followed by substrate addition measured after 10 mins by fluorescence spectrophotometric analysis
[4] = molecular target: T1, Angiotensin-converting enzyme; experiment: Inhibition of human fully glycosylated ACE C-terminal domain expressed in CHO cells using Cbz-Phe-His-Leu as substrate preincubated for 15 mins followed by substrate addition measured after 10 mins by fluorescence spectrophotometric analysis
[5] = molecular target: T1, Angiotensin-converting enzyme; experiment: Inhibition of human fully glycosylated ACE C-terminal domain expressed in CHO cells using Cbz-Phe-His-Leu as substrate preincubated for 15 mins followed by substrate addition measured after 10 mins by Morrison's plot analysis
[6] = molecular target: T1, Angiotensin-converting enzyme; experiment: Inhibition of human fully glycosylated ACE N-terminal domain expressed in CHO cells using Cbz-Phe-His-Leu as substrate preincubated for 15 mins followed by substrate addition measured after 10 mins by Morrison's plot analysis

IC50 [1]	IC50 [2]	IC50 [3]	IC50 [4]	Ki [5]	Ki [6]	Compound
2100 nM	2200 nM	1800 nM	2800 nM			O=C(N[C@H]1CCS[C@H]2CCC[C@@H](C(=O)O)N2C1=O)[C@H](Cc1ccccc1)SS[C@@H](Cc1ccccc1)C(=O)N[C@H]1CCS[C@H]2CCC[C@@H](C(=O)O)N2C1=O
				0.016 nM	0.015 nM	O=C(N[C@H]1CCS[C@H]2CCC[C@@H](C(=O)O)N2C1=O)[C@@H](S)Cc1ccccc1 [OMAPATRILAT]
